Test results published in patent publication US9687493B2, “Use of NK-1 receptor antagonists for treating hypomagnesemia, neurogenic inflammation, and cardiac dysfunction associated with EGFR-blocking drugs” (THE GEORGE WASHINGTON UNIVERSITY, priority 2014, dated 2017).
Like-named read-outs stand apart in the source and are kept apart here. One block for each molecule: values may come before it.

What was measured:
[1] = patients with colorectal cancer, monoclonal antibodies targeting the EGFR; cited from earlier work
[2] = male, Sprague-Dawley, rat, in vivo, 9 weeks
Protocol: Male Sprague-Dawley rats (˜150 g) were purchased from Hilltop Lab Animals (Scottdale, Pa.). After one week of quarantine, the rats were divided into 4 groups: (1) Control group (N=5) receiving Mg normal diet (25 mmole Mg Oxide/kg food); (2) Erlotinib treated group (N=5, receiving erlotinib at a starting dose of 10 mg/kg/day in the diet); (3) Erlotinib+Emend group (N=7, receiving erlotinib plus Emend at a starting dose of 2 mg/kg/day in the diet); and (4) Emend alone group (N=5).

[3] = Plasma substance P (SP) by ELISA; type: in vivo, Sprague-Dawley rats; conditions: for increase in circulating SP vs time-matched control: erlotinib
Protocol: (§1) Experiments on animals were conducted in accordance with the principles given in the US Department of Health and Human Services Guide for the Care and Use of Laboratory Animals and were approved by The George Washington University Institutional Animal Care and Use Committee. Male Sprague-Dawley rats (125-150 g) were purchased from Hilltop Lab Animals, Inc. (Scottdale, Pa.). After 1 week of quarantine, all age-matched rats were placed on an ad libitum Mg normal diet (25 mmole magnesium oxide/kg food regarded as 100% recommended daily allowance for rodents) obtained from Harlan-Teklad (Madison, Wis.) containing extracted casein as the diet base supplemented with essential vitamins and nutrients; or the same diet supplemented with erlotinib (OSI Pharmaceuticals, LLC, Northbrook, Ill. 60062, USA) to obtain a starting dose of 10 mg/kg/day, Emend® (as aprepitant, Merck & Co., INC. USA) to obtain a starting dose of 2 mg/kg/day, or both agents at these doses. Individually-housed rats were weighed and food consumption recorded daily to obtain actual drug dosage: time-range average erlotinib dose over 9 weeks was 7.07 mg/kg/day, and time-range average Emend dose over 9 weeks was 1.41 mg/kg/day. Rats had free access to distilled-deionized water, and were on a 12 h light/dark cycle for up to 9 weeks.
(§2) At periodic intervals, blood was collected (˜0.5 ml) aseptically from the tail of anaesthetized rats (2% isoflurane, EZ Anesthesia Chamber with nose cone)(13, 14) in sterile microtainer plasma separator tubes containing heparin and the protease inhibitor, aprotinin (Sigma Chemicals, St. Louis Mo.) to yield final blood concentrations of 10.74 units/ml and 0.016 units/ml, respectively. For subsequent samplings, the scab was carefully removed, and the process was repeated. Plasma was obtained after centrifugation (12,000 rpm, 2 min, RT, IDEXX StatSpin VT, Iris International, Inc., Westwood, Mass.). Tail bleed samples were used for assessment of plasma Mg, and substance P levels. Sacrifice blood samples (˜8 ml collected in heparin plus aprotinin containing BD vacutainer SST tubes) were taken from anaesthetized, heparinized (0.3-0.4 ml 358 units/ml heparin in 0.9% NaCl, i.p.) rats from either the vena cava or by cardiac puncture, and were centrifuged (3,500 rpm, 10 min, RT). In addition to the above plasma parameters, sacrifice plasma was also assayed for 8-isoprostane levels, and the whole blood samples were processed for neutrophil isolation and assessment of superoxide anion production.

[4] = test system: cancer cells; conditions: through NOX-4 up-regulation; cited from earlier work
[5] = for improvement of AoPmax: NS
Protocol: Anesthetized rats were subjected to echocardiography periodically during the treatment regimens using a GE VingMed System Five Echocardiogram System (12, 13, 17, and 18). Heart rate and rectal temperature (35.9-37.5° C.) were monitored constantly during the imaging. Animals were placed on a warming platform with paws taped down to limit any motion during imaging, and a sterile eye lubricant was applied to prevent eye drying during the procedure. Hair over the thorax was removed first with an electric clipper, and then with a depilatory cream (<2 min exposure). Animals were imaged (10 MHz probe) for about 20 minutes at an image depth of 3 cm. This imaging system allows for both cardiac structure and function evaluation in rats. Systolic function, measured as % fractional shortening (% FS) using M-mode imaging, and left ventricular ejection fraction (LVEF), calculated from M-mode measurements, were assessed. Key anatomical parameters (IVSd & s=inter-ventricular septum diameter in diastole and systole; and LVPWd & s=LV posterior wall thickness in diastole or systole) were measured to assess the presence of dilated or hypertrophic cardiomyopathy. Measurements of the aortic and pulmonary artery diameters were used to calculate stroke volumes. Aortic pressure max (AoPmax) was assessed; and spectral Doppler velocities were measured for the pulmonic and aortic outflows to calculate cardiac output (CO), and for the mitral valve inflows to assess ventricular diastolic function (mitral valve E and A wave velocities and the E/A ratio were obtained). After echocardiography, animals were placed in room air until awake, and observed until fully recovered.
Rats treated with erlotinib (starting 10 mg/kg/day, oral) and/or Emend (aprepitant, starting 2 mg/kg/day, oral) received echocardiography at the indicated intervals (FIGS. 5A-5C).
Table 3 legend: Interventricular septum dimension in diastole (IVSd) and systole (IVSs); and LV posterior wall thickness in diastole (LVPWd) and systole (LVPWs). Rats treated with erlotinib (starting 10 mg/kg/day, oral) and/or Emend (aprepitant, starting 2 mg/kg/day, oral) received echocardiography at the indicated intervals. Values (% change) for erlotinib±Emend rats were compared to time-matched controls, and are means±SEM of 5-7 rats per group.

[6] = test system: neutrophils
Protocol: as §2
At sacrifice, whole blood (3 ml) samples were obtained; neutrophils were isolated by a step-gradient centrifugation method (13,−16). Superoxide anion production from neutrophils (0.5-0.75×10^6/ml) with (stimulated) or without (basal) PMA (phorbol myristate acetate, 100 ng/ml) was assayed in a phosphate buffer (pH 7.6) containing 5 mM glucose, 1 mM CaCl2, 1 mM MgCl2, and 75 μM cytochrome c±50 μg SOD. Superoxide generation was estimated as SOD-inhibitable reduction of cytochrome c using the extinction coefficient: E550=2.1×10^4M^−1cm^−1.
Hypomagnesemia alone in rodents can promote neutrophil free radical generating activity (Mak et al., Exp. & Clin. Cardiol. 2011, 16(4):121-124; Mak et al., Magnesium Res 2003, 16(2):91-97). In the present study, blood was sampled from rats treated with erlotinib (starting 10 mg/kg/day, oral) and/or Emend (aprepitant, starting 2 mg/kg/day, oral) at 9 weeks of exposure. Circulating neutrophil basal superoxide generating activity was determined as SOD-inhibitable reduction of cytochrome c (FIG. 3A). Plasma 8-isoprostane was assessed by a colorimetric ELISA kit (FIG. 3B). Values for erlotinib±Emend rats were compared to time-matched controls, and are means±SEM of 4-6 rats per group. ** p<0.01 versus control; ++p<0.01 versus erlotinib alone. […] Enhanced systemic oxidative stress, as represented by increased total plasma 8-isoprostane content (FIG. 3B), was prominent by 9 weeks (210% increase, p<0.01).

[7] = Plasma magnesium by atomic absorption flame emission spectroscopy; type: in vivo, Sprague-Dawley rats; conditions: for change in circulating Mg level vs time-matched control: erlotinib starting 10 mg/kg/day oral
Protocol: Individually-housed rats were weighed and food consumption recorded daily to obtain actual drug dosage: time-range average erlotinib dose over 9 weeks was 7.07 mg/kg/day, and time-range average Emend dose over 9 weeks was 1.41 mg/kg/day.
Magnesium levels in 1:50 or 1:100 diluted, acidified (nitric acid) plasma samples were determined by atomic absorption flame emission spectroscopy (wavelength=285.2 nm) using an AA-6200 Shimadzu spectrophotometer (Columbia, Md.) as described (13). Values obtained from standard curves were mg/dl, and reported as % of control.
Plasma was assessed for magnesium by flame emission atomic absorption spectroscopy (FIG. 2A). Data are the means±SEM of 5-7 animals per group. * p<0.05, **p<0.01 and # p<0.001 compared with the time-matched control group; +p<0.055 versus erlotinib alone. Plasma SP (FIG. 2B) was assessed by a colorimetric ELISA kit.

[8] = Protocol: as §2, with “In addition to the above plasma parameters, sacrifice plasma was also assayed for 8-isoprostane levels, and the whole blood samples were processed for neutrophil isolation and assessment of superoxide anion production.” left out
Hypomagnesemia alone in rodents can promote neutrophil free radical generating activity (Mak et al., Exp. & Clin. Cardiol. 2011, 16(4):121-124; Mak et al., Magnesium Res 2003, 16(2):91-97). […] Circulating neutrophil basal superoxide generating activity was determined as SOD-inhibitable reduction of cytochrome c (FIG. 3A). Plasma 8-isoprostane was assessed by a colorimetric ELISA kit (FIG. 3B). […]

[9] = rat, in vivo
Protocol: as §1, with “weeks. […]” for “weeks.”

[10] = test system: nitro-tyrosine in cardiac tissue; assay: Cardiac nitro-tyrosine immunohistochemical assessment; type: in vivo, Sprague-Dawley rats
Protocol: Cardiac tissue was rapidly excised, rinsed in saline, embedded in OCT compound, quickly frozen and kept at […] until used. Cryosections, 5 um thick, were stained by an indirect, immunohistochemical staining method (13) using rabbit anti-rat Nitrotyrosine antibody (5 ug/ml; Millipore, Billerica, Mass.) and the Vecta-Stain Elite ABC kit immunoperoxidase system (Vector Laboratories, Burlingame, Calif.). Samples were examined under an Olympus BX60 microscope, and multiple images were taken with a digital camera (Evolution Color MP; Media Cybernetics, Silver Spring, Md.). Briefly, fresh frozen sections were fixed in 10% formaldehyde, washed in PBS, incubated with 0.3% hydrogen peroxide in methanol for 30 min to block endogenous peroxidase, washed in PBS and incubated overnight at 4 C with rabbit anti nitrotyrosine antibody, which was applied on every slide except negative control. ABC kit reagents for horseradish peroxidase and 3-3′diaminebenzidine (DAB) were used to visualize the antigen-antibody reaction product as brown color. The sections were counterstained with hematoxylin, rinsed, dehydrated and cleared in series of ethanol and xylene and coverslipped.

[11] = male, Sprague-Dawley, rat, in vivo
[12] = male, Sprague-Dawley, rat, in vivo, 7 weeks
[13] = male, Sprague-Dawley, rat, in vivo, 9 weeks
[14] = 7 weeks, Emend co-treatment of erlotinib-exposed rats
[15] = 7 weeks, Emend co-treatment, p<0.05 vs erlotinib alone
[16] = 9 weeks, Emend co-treatment, p<0.02
[17] = 9 weeks, Emend co-treatment with erlotinib

Molecule: panitumumab
hypomagnesemia in treated patients [1]: pronounced hypomagnesemia

number of animals that developed facial lesion [2]: 5
increase in circulating SP vs time-matched control ([3]; week 3, p<0.05): 27.3%
increase in circulating SP vs time-matched control ([3]; week 5, NS): 12.3%
increase in circulating SP vs time-matched control ([3]; week 9, p<0.01): 25.4%
decline in IVSd [5, 11]: 12.8-16.8%
decline in LVPWs [5, 11]: 9.3-21.9%
fall in LVPWd [5, 11]: 15.6-20.9%
lower IVSs [5, 11]: 11.4-17.5%
LV % fractional shortening (LV % FS) lower than time-matched control [5, 12]: 17.2%
LV ejection fraction (LVEF) lower than time-matched control [5, 12]: 10.4%
aortic pressure maximum lower than control [5, 12]: 17.1%
cardiac output reduced vs control [5, 12]: 18.8%
LV % fractional shortening (LV % FS) lower than time-matched control [5, 13]: 17.7%
LV ejection fraction (LVEF) lower than time-matched control [5, 13]: 11%
aortic pressure maximum lower than control [5, 13]: 27.5%
cardiac output reduced vs control [5, 13]: 20.3%
mitral valve E/A ratio reduction [5, 13]: 17.5%
changes in cardiac contractile function ([5]; rat, in vivo): No significant changes
mitral valve E/A ratio ([5]; rat, in vivo): not significantly affected
neutrophil basal superoxide generating activity, higher than control ([6]; rat, in vivo): 3 fold
change in circulating Mg level vs time-matched control ([7]; 1.5 week): −2%
change in circulating Mg level vs time-matched control ([7]; 9 weeks, p<0.001): −26%
change in circulating Mg level vs time-matched control ([7]; wk 3): −9%
change in circulating Mg level vs time-matched control ([7]; wk 5): −13%
change in circulating Mg level vs time-matched control ([7]; wk 7): −16%
increase of total plasma 8-isoprostane content ([8]; rat, in vivo): 210%
Molecule: C#Cc1cccc(Nc2ncnc3cc(OCCOC)c(OCCOC)cc23)c1 [Erlotinib, erlotinib]
cellular oxidative stress [4]: can provoke cellular oxidative stress
food consumption compared to controls [9]: Neither ERL nor Emend affected food consumption
cardiac nitro-tyrosine (NT) presence, immunohistochemical staining ([10]; 9 wk of Erlotinib treatment): substantial perivascular and diffused NT presence

impact on LV systolic, diastolic, hemodynamic and anatomical parameters compared to time-paired controls ([5]; rat, in vivo): did not have any significant impact
effect on neutrophil superoxide activity ([6]; rat, in vivo): no effects
nitro-tyrosine formation ([10]; rat, in vivo): did not have any effect
Molecule: C[C@@H](O[C@H]1OCCN(Cc2n[nH]c(=O)[nH]2)[C@H]1c1ccc(F)cc1)c1cc(C(F)(F)F)cc(C(F)(F)F)c1 [Emend, aprepitant]
effect on erlotinib-induced increases in SP ([3]; Emend co-treatment with erlotinib): almost completely blocked
improvement of LV % FS compared to erlotinib alone ([5]; 7 weeks, Emend co-treatment): 65.1%
improvement of LVPWs ([5]; 7 weeks, Emend co-treatment): 53.4%
protection against erlotinib-induced decline in cardiac output ([5]; 7 weeks, Emend co-treatment): 64.9%
improvement of IVSd [5, 14]: 48.2%
improvement of LVEF compared to erlotinib alone [5, 14]: 71.3%
improvement of AoPmax ([5]; 7 weeks, Emend co-treatment): 86%
improvement of IVSs [5, 15]: 76%
improvement of LVPWd [5, 15]: 59.1%
improvement of IVSd ([5]; 9 weeks, Emend co-treatment): 42.8%
improvement of IVSs ([5]; 9 weeks, Emend co-treatment): 62%
improvement of LVPWd ([5]; 9 weeks, Emend co-treatment): 49.8%
improvement of LVPWs ([5]; 9 weeks, Emend co-treatment): 58.2%
improvement of AoPmax ([5]; 9 weeks, Emend co-treatment): 64%
improvement of LV % FS compared to erlotinib alone [5, 16]: 86.4%
improvement of LVEF compared to erlotinib alone [5, 16]: 87.2%
protection against erlotinib-induced decline in cardiac output ([5]; 9 weeks, Emend co-treatment, p<0.02 vs ERL alone): 75.4%
improvement of mitral valve E/A ratio compared to erlotinib alone ([5]; 9 weeks, Emend co-treatment, p<0.05): 84.6%
effect on erlotinib-caused increase in basal superoxide generating activity [6, 17]: completely prevented
effect on erlotinib-caused increase in stimulated superoxide generating activity [6, 17]: completely prevented
attenuation of severity of hypomagnesemia due to erlotinib ([7]; 9 week, Emend (starting 2 mg/kg/day) co-treatment with erlotinib): ~42%
effect on elevation of total plasma isoprostane caused by erlotinib [8, 17]: completely blocked
food consumption compared to controls [9]: Neither ERL nor Emend affected food consumption
nitro-tyrosine formation in the ventricles ([10]; 9 wk, Emend co-treatment with erlotinib): visibly attenuated
